From patent US20190008810A1, “METHOD FOR PREVENTION, TREATMENT AND ALLEVIATION OF INFECTIOUS DISEASES AND DISORDERS” (REPLICON HEALTH OY, priority 2016, published 2019)

Legend:
[1] = system: corticosterone, IL-6
[2] = system: fever; test: Acute fever response in two humans under infection, Example 4; type: in vivo, human
Method: FIG. 11: Numerical values of short term reduction in fever in disease after the DGA Activation (administration approximately 300 mg of D-glyceric acid mixed in water as calcium salt (=2× 200 mg of DGAcs). The results in this table are presented graphically in FIG. 5 and explained in Example 4. Additional Notes: 300 mg of D-glyceric acid is more precisely the same as 430 mg of calcium salt dehydrate formulation, because one calcium atom and 2 water molecules make up some 30% of the total molecular weight. *) Reduction in fever materialized but the symptoms of the disease e.g. pain remained. **) Rather stressful “absent day from work arrangements” by e-mail between 0 minutes and 15 minutes' measurements could possibly have kept fever up.
In Example 4 acute 15 min, 30 min, etc. fever responses of the DGA Activation in two individual under viral and/or bacterial infection (subjects S1 and S4 from e.g. Examples 1b-1f) were measured. Results are presented in graphical format in FIG. 5 and in numeric format in FIG. 11. The measurements of body temperatures after the DGA Activation were made in physiological state where infections (diseases) continue but they have nevertheless more or less stabilized. In this kind of a situation the immune system is activated above healthy and/or subclinical level. The objective was to verify possible spillover effects from reduction in inflammation and in oxidative stress towards fever. At the same the target was to gain more info on the size of suitable administration. (Before initiating any human tests full proof of safety was received from 3 week in vivo experiments with rats. The doses used in these clinical tests are at maximum less than 5% of the safe doses with rats in the 3-week safety tests.)

[3] = 3-week safety feeding study with 80 rats; type: in vivo; conditions: three doses mixed into chow, 3 weeks; highest more than 100 times human doses
Method: Before initiating any clinical tests full proof of safety was received from 3 week in vivo feeding experiments with rats. This 3-week safety study with 80 rats was conducted in Finnish National Institute of Health with three different D-glyceric acid doses mixed into chow. […] Highest doses with rats in the safety study were more than 100 times the doses used for humans in any of the shorter tests presented here.

[4] = system: CRP; test: Blood CRP in continuous IPA/Dry Eye disease model; type: in vivo, mice
Method: Tear volume was measured for groups 3 and 4 and later comparison results for group 2 were received. The blood samples were collected from saphenous vein on day 5 (prior the treatment) and on day 7, just prior anesthesia and during the perfusion (cardiac puncture). On day 7, the animals were terminally anesthetized and transcardially perfused. Plasma was separated in all collected blood samples and kept frozen at −80° C. until the measurements. CRP measurements were performed using mouse CRP ELISA kit. […] In addition, animals were monitored daily for general health status. The lacrimal glands were embedded into paraffin, sectioned, stained and analyzed for possible pathology.
In this Example, CRP results from 3 separate preclinical tests are presented and analyzed. […] CRP present in mouse serum samples were analyzed using mouse CRP ELISA kit (GWB-3B960E, Genway Biotech Inc.). […]
In two other CRP tests, the effect of the DGA Activation in two disease models, continuous vs. discontinuous was analyzed. […] Logarithmic change of blood CRP during the 7-day disease follow up period of each mouse in all groups was calculated and the averages are presented in FIGS. 4b and 4c. […]
Brief description of the disease models: 1) continuous IPA -model (see Example 1a) and 2) discontinuous MPTP/PD -model. […] Diet consumption per cage is monitored carefully before and during the study follow-up period. […]

O=C(O)[C@H](O)CO [DGA, D-glyceric acid]
decline of blood corticosterone compared to 0-Control ([1]; 9 mg/kg of body weight/day of DGAcs in feed, 3 weeks, N=30, p-value=0.021): ~40%
fat formation ([1]; 3-5 week feeding study, N=144): fat formation is not increased
average IL-6 levels compared to 0-control ([1]; 21-28 days, not statistically significant, p-value=0.12): lower average IL-6 levels
late mortality ([1]; earlier broiler chicken experiment without infection, 1-2% in other groups): no mortality in DGA groups
reducing fever due to infection ([2]; 2×200 mg oral dose mixed into water): very effective in reducing fever
immediate impact on fever ([2]; S1, 1×200 mg, Monday 0908 pm): didn't seem to have any significant immediate impact on fever
return of fever ([2]; S1 and S4): returns almost to the starting level in 1 hour or at least in 1.5 hours
time to reduction of fever ([2]; S1 and S4, 2×200 mg of DGAcs in water): 15 to 30 min
decline of fever ([2]; statistically very significant): modest
adverse health effects (feed intake, body weight development) [3]: No adverse health effects were noticed
survival and health parameters ([4]; 4+7-day administration): improved survival and health parameters
blood CRP change vs 0-control ([4]; 7-day IPA after 4-day priming, p-value=0.027): increased statistically significantly
